Data reported in article PMC3234165 (Biochemistry, 2011).

Legend:
[1] = target: T1, sigma-2 receptor (sigma-2 sites) (Rattus norvegicus, UniProt Q5U3Y7); test: Competitive displacement of [3H]-DTG binding, rat liver membranes; settings: for KI sigma-2 sites: rat liver membranes in the presence of 100 nM (+)-pentazocine, [3H]-DTG; for sigma-2/sigma-1: ratio from the KI value of sigma-1 and sigma-2 sites (membranes)
T1 sequence (Q5U3Y7 1-176): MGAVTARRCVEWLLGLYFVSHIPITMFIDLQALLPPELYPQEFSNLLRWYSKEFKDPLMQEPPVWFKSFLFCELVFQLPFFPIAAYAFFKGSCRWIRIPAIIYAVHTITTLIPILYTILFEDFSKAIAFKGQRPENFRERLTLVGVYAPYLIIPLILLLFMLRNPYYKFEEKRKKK

Sig-1R, sigma-1 receptor = Sig-1R, sigma-1 receptor (Rattus norvegicus, UniProt Q9R0C9); test: NIMH PDSP secondary binding assay
Sequence of Sig-1R, sigma-1 receptor (Q9R0C9 whole entry): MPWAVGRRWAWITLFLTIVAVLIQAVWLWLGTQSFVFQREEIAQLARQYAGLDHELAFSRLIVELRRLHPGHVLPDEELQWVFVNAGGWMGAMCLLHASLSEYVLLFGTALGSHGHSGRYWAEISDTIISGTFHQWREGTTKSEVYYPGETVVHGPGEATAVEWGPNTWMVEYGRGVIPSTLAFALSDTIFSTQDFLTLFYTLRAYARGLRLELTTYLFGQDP

Sig-2R, sigma-2 receptor = target: T2, Sig-2R, sigma-2 receptor (Rattus norvegicus, UniProt Q5U3Y7); test: NIMH PDSP secondary binding assay
T2 sequence (Q5U3Y7 1-176): T1 sequence (Q5U3Y7 1-176)

[2] = target: T3, 5HT1A (serotonin receptor subtype 1A) (Homo sapiens, UniProt P08908); test: NIMH PDSP secondary binding assay; settings: KI 5HT1A, NIMH PDSP; [3H]8-OH-DPAT/0.5 nM
T3 sequence (P08908 1-422): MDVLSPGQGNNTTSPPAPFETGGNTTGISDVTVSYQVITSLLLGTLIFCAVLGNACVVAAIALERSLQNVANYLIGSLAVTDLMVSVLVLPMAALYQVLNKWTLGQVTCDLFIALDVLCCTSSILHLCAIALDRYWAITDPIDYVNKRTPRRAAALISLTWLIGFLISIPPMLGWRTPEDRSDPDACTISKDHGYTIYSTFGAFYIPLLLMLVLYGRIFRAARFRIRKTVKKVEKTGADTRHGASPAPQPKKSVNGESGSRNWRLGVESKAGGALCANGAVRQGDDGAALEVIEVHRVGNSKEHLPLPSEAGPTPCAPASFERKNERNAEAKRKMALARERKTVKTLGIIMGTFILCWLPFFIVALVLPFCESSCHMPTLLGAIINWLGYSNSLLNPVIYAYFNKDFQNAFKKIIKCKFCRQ

[3] = target: 5HT1B (serotonin receptor subtype 1B) (Homo sapiens, UniProt P28222); test: NIMH PDSP secondary binding assay
Sequence of 5HT1B (serotonin receptor subtype 1B) (P28222 whole entry, species assumed): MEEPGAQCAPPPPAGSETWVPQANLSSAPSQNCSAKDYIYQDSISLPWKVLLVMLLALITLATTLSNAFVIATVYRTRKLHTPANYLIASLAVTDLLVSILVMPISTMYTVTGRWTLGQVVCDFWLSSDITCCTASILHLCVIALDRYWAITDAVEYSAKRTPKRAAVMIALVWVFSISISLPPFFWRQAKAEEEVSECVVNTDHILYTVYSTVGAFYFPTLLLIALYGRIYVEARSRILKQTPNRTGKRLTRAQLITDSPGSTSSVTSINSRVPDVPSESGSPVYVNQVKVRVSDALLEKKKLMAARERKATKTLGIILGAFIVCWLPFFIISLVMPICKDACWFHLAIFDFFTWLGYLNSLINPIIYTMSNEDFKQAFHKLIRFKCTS

[4] = target: 5HT7 (serotonin receptor subtype 7) (Homo sapiens, UniProt P34969); test: NIMH PDSP secondary binding assay
Sequence of 5HT7 (serotonin receptor subtype 7) (P34969 whole entry, species assumed): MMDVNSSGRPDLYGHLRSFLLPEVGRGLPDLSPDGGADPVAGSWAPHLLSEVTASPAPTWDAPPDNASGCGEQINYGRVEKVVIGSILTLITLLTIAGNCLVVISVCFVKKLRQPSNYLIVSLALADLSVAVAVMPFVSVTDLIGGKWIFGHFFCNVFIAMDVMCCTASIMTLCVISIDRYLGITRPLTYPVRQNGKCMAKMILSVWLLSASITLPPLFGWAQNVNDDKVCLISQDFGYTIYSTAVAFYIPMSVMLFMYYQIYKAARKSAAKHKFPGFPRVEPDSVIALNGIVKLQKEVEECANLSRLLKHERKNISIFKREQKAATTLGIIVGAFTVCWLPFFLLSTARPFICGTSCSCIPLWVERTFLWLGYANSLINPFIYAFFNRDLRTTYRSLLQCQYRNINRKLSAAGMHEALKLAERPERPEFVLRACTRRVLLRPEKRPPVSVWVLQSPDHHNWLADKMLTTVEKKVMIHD

[5] = target: T4, α-1A (α-adrenergic receptor subtype 1A) (Homo sapiens, UniProt P35348); test: NIMH PDSP secondary binding assay
T4 sequence (P35348 1-466): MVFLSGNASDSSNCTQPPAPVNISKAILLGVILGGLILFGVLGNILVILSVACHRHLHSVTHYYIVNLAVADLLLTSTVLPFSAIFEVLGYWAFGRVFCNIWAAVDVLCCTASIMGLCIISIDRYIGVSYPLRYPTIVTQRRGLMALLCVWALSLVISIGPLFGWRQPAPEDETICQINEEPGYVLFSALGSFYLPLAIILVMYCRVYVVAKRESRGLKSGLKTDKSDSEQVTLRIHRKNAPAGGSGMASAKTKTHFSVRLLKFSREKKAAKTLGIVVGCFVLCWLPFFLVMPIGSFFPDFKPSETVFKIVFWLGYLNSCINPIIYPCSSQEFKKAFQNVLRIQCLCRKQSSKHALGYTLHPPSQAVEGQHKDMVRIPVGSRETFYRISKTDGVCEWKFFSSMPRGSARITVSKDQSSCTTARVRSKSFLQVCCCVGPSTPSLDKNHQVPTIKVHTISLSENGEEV

[6] = target: β-2 (β-adrenergic receptor subtype 2) (Homo sapiens, UniProt P07550); test: NIMH PDSP secondary binding assay
Sequence of β-2 (β-adrenergic receptor subtype 2) (P07550 whole entry): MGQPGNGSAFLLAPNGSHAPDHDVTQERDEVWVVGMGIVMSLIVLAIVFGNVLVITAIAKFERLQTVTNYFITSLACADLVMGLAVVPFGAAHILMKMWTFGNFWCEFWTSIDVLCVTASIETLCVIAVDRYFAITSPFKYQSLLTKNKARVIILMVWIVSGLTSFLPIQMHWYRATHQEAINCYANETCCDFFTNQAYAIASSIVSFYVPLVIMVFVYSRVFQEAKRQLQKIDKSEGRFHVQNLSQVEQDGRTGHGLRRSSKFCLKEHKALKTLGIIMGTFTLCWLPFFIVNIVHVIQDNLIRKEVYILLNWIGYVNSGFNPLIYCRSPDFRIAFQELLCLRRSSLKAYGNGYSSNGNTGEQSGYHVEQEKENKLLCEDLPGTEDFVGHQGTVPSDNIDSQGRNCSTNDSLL

[7] = target: β-3 (β-adrenergic receptor subtype 3) (Homo sapiens, UniProt P13945); test: NIMH PDSP secondary binding assay
Sequence of β-3 (β-adrenergic receptor subtype 3) (P13945 whole entry): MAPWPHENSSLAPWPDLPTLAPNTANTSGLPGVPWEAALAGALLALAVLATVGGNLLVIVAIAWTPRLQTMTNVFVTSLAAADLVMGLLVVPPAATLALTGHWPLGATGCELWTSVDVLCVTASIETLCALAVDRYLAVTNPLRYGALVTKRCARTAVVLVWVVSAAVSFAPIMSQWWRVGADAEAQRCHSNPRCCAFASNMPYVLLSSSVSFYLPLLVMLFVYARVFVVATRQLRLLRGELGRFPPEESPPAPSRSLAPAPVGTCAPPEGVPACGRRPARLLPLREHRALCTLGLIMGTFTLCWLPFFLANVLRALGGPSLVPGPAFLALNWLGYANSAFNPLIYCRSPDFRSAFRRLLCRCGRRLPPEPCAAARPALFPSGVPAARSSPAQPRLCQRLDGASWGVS

[8] = target: D1 (dopamine receptor type 1) (Homo sapiens, UniProt P21728); test: NIMH PDSP secondary binding assay
Sequence of D1 (dopamine receptor type 1) (P21728 whole entry): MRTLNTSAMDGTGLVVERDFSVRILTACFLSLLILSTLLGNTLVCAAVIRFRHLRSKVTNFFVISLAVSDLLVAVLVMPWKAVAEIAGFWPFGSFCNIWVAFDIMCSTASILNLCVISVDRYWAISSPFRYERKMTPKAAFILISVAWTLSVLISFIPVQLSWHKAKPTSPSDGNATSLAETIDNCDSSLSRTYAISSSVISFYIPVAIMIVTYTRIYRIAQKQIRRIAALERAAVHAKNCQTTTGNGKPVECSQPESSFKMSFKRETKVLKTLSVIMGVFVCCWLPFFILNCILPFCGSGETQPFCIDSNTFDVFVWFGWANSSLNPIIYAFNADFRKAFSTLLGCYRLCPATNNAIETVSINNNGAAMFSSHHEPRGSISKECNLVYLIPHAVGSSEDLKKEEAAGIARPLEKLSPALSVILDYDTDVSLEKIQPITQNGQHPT

[9] = target: H1 (histamine receptor type 1) (Homo sapiens, UniProt P35367); test: NIMH PDSP secondary binding assay
Sequence of H1 (histamine receptor type 1) (P35367 whole entry): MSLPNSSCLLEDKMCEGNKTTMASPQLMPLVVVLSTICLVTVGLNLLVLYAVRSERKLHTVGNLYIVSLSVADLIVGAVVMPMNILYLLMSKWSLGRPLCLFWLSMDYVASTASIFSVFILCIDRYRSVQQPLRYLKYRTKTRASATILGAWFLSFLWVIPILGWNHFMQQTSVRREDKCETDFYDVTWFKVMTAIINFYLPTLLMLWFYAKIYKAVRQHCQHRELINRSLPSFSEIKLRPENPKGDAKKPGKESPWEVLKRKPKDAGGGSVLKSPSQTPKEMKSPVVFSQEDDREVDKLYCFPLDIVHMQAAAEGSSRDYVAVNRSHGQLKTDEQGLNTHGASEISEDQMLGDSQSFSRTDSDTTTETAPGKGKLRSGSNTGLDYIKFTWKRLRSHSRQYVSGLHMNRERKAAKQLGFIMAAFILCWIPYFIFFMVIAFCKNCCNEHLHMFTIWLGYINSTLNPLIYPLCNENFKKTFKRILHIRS

[10] = target: H3 (histamine receptor type 3) (Homo sapiens, UniProt Q9Y5N1); test: NIMH PDSP secondary binding assay
Sequence of H3 (histamine receptor type 3) (Q9Y5N1 whole entry): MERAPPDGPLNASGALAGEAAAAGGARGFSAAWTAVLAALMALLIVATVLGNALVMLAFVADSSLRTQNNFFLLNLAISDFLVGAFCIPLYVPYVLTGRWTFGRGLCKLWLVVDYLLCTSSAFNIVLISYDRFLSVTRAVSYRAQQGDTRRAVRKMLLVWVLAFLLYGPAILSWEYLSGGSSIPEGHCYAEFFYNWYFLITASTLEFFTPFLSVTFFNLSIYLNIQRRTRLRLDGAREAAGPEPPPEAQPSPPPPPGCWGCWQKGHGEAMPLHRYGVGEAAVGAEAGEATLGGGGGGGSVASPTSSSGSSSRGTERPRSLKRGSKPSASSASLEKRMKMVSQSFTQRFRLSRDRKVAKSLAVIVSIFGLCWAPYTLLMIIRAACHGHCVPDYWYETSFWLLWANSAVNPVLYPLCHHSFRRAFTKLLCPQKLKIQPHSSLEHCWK

[11] = target: M1 (muscarinic acetylcholine receptor type 1) (Homo sapiens, UniProt P11229); test: NIMH PDSP secondary binding assay
Sequence of M1 (muscarinic acetylcholine receptor type 1) (P11229 whole entry): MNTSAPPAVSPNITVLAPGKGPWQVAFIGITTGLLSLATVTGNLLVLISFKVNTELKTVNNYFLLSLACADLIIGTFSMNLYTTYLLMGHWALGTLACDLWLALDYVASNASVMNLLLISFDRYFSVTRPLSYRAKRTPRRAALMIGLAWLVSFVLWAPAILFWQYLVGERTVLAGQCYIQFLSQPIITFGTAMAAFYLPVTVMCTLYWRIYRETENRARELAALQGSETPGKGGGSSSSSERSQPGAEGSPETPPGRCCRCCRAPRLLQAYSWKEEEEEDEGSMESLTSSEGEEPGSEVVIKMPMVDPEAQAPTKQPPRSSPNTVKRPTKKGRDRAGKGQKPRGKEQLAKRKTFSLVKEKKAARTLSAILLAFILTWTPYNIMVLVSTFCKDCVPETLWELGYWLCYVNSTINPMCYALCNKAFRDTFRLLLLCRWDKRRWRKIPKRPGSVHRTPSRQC

[12] = target: NET (norepinephrine transporter) (Homo sapiens, UniProt P23975); test: NIMH PDSP secondary binding assay
Sequence of NET (norepinephrine transporter) (P23975 whole entry, species assumed): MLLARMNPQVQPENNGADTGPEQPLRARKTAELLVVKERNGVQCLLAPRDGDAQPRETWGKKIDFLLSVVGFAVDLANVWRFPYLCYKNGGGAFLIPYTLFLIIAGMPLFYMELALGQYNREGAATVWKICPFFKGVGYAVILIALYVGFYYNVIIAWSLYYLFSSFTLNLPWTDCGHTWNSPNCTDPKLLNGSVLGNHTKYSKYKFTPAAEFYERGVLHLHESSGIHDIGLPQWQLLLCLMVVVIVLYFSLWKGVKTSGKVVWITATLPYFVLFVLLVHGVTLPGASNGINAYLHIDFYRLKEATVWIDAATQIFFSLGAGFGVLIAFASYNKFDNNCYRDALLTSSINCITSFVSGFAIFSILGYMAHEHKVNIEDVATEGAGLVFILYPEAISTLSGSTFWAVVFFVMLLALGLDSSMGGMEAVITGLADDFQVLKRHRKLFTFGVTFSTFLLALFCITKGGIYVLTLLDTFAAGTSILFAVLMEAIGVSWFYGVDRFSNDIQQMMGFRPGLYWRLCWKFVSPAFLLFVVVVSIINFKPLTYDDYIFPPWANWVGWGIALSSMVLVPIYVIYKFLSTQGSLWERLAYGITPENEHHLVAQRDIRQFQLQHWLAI

[13] = target: SERT (serotonin transporter) (Homo sapiens, UniProt P31645); test: NIMH PDSP secondary binding assay
MDA-MB-231 = test: Multiplex cytotoxicity assay; assay type: cell-based; settings: Homo sapiens, MDA-MB-231, read-out: IC50 MDA-MB-231
MCF-7 = test: Multiplex cytotoxicity assay; assay type: cell-based; settings: Homo sapiens, MCF7, read-out: IC50 MCF-7
MCF-10A = test: Multiplex cytotoxicity assay; assay type: cell-based; settings: Homo sapiens, read-out: IC50 MCF-10A
NCI-H460 = test: Multiplex cytotoxicity assay; assay type: cell-based; settings: Homo sapiens, NCI-H460, read-out: IC50 NCI-H460
A549 = test: Multiplex cytotoxicity assay; assay type: cell-based; settings: Homo sapiens, A549, read-out: IC50 A549
H1299 = test: Multiplex cytotoxicity assay; assay type: cell-based; settings: Homo sapiens, NCI-H1299, read-out: IC50 H1299
HCT-15 = test: Multiplex cytotoxicity assay; assay type: cell-based; settings: Homo sapiens, HCT-15, read-out: IC50 HCT-15
HT-29 = test: Multiplex cytotoxicity assay; assay type: cell-based; settings: Homo sapiens, HT-29, read-out: IC50 HT-29
SK-OV-3 = test: Multiplex cytotoxicity assay; assay type: cell-based; settings: Homo sapiens, SK-OV-3, read-out: IC50 SK-OV-3
Du145 = test: Multiplex cytotoxicity assay; assay type: cell-based; settings: Homo sapiens, DU-145, read-out: IC50 Du145
SF-268 = test: Multiplex cytotoxicity assay; assay type: cell-based; settings: Homo sapiens, SF-268, read-out: IC50 SF-268
caspases 3/7, 8, and 9 = test: Caspase activation potential; assay type: cell-based; settings: data not shown

Row | Structure (SMILES) | KI sigma-2 sites [1] | sigma-2/sigma-1 [1] | Ki (Sig-1R, sigma-1 receptor) [µM] | Ki (Sig-2R, sigma-2 receptor) [µM] | Ki [2] [µM] | Ki [3] [µM] | Ki [4] [µM] | Ki [5] [µM] | Ki [6] [µM] | Ki [7] [µM] | Ki [8] [µM] | Ki [9] [µM] | Ki [10] [µM] | Ki [11] [µM] | Ki [12] [µM] | Ki [13] [µM] | IC50 (MDA-MB-231) [µM] | IC50 (MCF-7) [µM] | IC50 (MCF-10A) [µM] | IC50 (NCI-H460) [µM] | other results
1 | CCCCCCCNCCCc1ccccc1 [2a, N-(3-Phenylpropyl)heptan-1-amine] | nanomolar affinities | 2 | 0.09 | 0.25 | 0.13 | > 10 | > 10 | > 10 | > 10 | > 10 | > 10 | > 10 | > 10 | > 10 | > 10 | > 10 | 33 ± 2 | 20 ± 1 | 70 ± 5 | 45 ± 5 | IC50 (A549): 83 ± 11 µM; IC50 (H1299): 39 ± 6 µM; IC50 (HCT-15): 18 ± 12 µM; IC50 (HT-29): 40 ± 1 µM; IC50 (SK-OV-3): > 100 µM; IC50 (Du145): 25 ± 1 µM; IC50 (SF-268): 63 ± 2 µM; activation of caspases 3/7, 8, and 9 (caspases 3/7, 8, and 9): did not activate
2 | CCCCCCCCCCCCNCCCc1ccccc1 [3a, N-(3-Phenylpropyl)dodecan-1-amine] | micromolar affinities | 0.4 | 1.5 | 3.6 | > 10 | > 10 | > 10 | > 10 | > 10 | > 10 | > 10 | > 10 | > 10 | > 10 | > 10 | > 10 | 54 ± 3 | 50 ± 18 | 53 ± 18 | 55 ± 3 | IC50 (A549): 87 ± 70 µM; IC50 (H1299): 39 ± 0.1 µM; IC50 (HCT-15): > 100 µM; IC50 (HT-29): 42 ± 21 µM; IC50 (SK-OV-3): 60 ± 7 µM; IC50 (Du145): 51 ± 4 µM; IC50 (SF-268): 60 ± 14 µM; activation of caspases 3/7, 8, and 9 (caspases 3/7, 8, and 9): did not activate
3 | CCCCCCCCCCCCNCCCc1ccc([N+](=O)[O-])cc1 [3b, N-(3-(4-Nitrophenyl)propyl)dodecan-1-amine] | micromolar affinities | 0.5 | 0.2 | 0.27 | 0.04 | > 10 | > 10 | > 10 | > 10 | > 10 | > 10 | > 10 | > 10 | > 10 | > 10 | 0.7 | 15 ± 1 | 12 ± 1 | 15 ± 1 | 18 ± 2 | IC50 (A549): 29 ± 1 µM; IC50 (H1299): 13 ± 1 µM; IC50 (HCT-15): 25 µM; IC50 (HT-29): 14 ± 0.2 µM; IC50 (SK-OV-3): 16 ± 1 µM; IC50 (Du145): 17 ± 0.4 µM; IC50 (SF-268): 16 ± 1 µM; activation of caspases 3/7, 8, and 9 (caspases 3/7, 8, and 9): did not activate
